Reference: patent publication US3960862A, “1,3-Diazacycloalkeno-[1,2,d]-benzo-[f-]-1,3,4-thiadiazepines” (BASF Aktiengesellschaft, priority 1973, dated 1976)

Experiments:
[1] = system: phenylquinone-induced writhing reactions in mice; experiment: writhing test on mice (phenylquinone i.p.), peroral application; format: in vivo; conditions: for ΣR x ± sx (frequency of writhing reactions) / % effect (Decrease in the writhing reactions): n = 10, mice
Description: In this test p-benzoquinone (phenylquinone) in a 0.02% aqueous solution in a volume of 10 ml/kg of body weight i.p. serves to initiate pain. The typical writhing reactions which occur after a certain latency period are recorded in their frequency; decrease in the writhing frequency is evaluated as analgesic effect. The following Table indicates the numerical connection between dosage and effect after peroral application of the active ingredient.
^o T-test for independent random samples, bilateral questioning, significant down to 0.05, below 0.001 not given. n = number of test animals. The values are mean values ± mean error of the mean value.

[2] = pharmacological screening (blood pressure, sympathomimetric and central nervous system effects; analgesic, spasmolytic, anti-inflammatory, broncholytic properties); conditions: in vivo
[3] = system: central nervous system; experiment: behavior of animals treated with the compound; design: species or system mice; conditions: mouse, in vivo
[4] = effective dose compared with range of toxic doses; conditions: in vivo

SMILES: O=[N+]([O-])c1cccc(C2=NN3CCCN=C3c3ccccc3S2)c1 [Example 18, Tetrahydropyrimidino-[1,2-d]-benzo-[f]-2-(3-nitrophenyl)-1,3,4-thiadiazepine]
- ΣR x ± sx (frequency of writhing reactions) ([1]; 4.64 mg/kg peroral): 14.7 ± 2.1
- % effect (Decrease in the writhing reactions) ([1]; 4.64 mg/kg peroral, P <0.02): 28.1 ± 10.3%
- ΣR x ± sx (frequency of writhing reactions) ([1]; 10 mg/kg peroral): 12.7 ± 2.4
- % effect (Decrease in the writhing reactions) ([1]; 10 mg/kg peroral, P <0.002): 37.9 ± 11.8%
- ΣR x ± sx (frequency of writhing reactions) ([1]; 21.5 mg/kg peroral): 10.4 ± 1.9
- % effect (Decrease in the writhing reactions) ([1]; 21.5 mg/kg peroral, P <0.001): 49.1 ± 9.4%
- ΣR x ± sx (frequency of writhing reactions) ([1]; 46.4 mg/kg peroral): 8.9 ± 1.5
- % effect (Decrease in the writhing reactions) ([1]; 46.4 mg/kg peroral, P <0.001): 56.5 ± 7.2%
- ΣR x ± sx (frequency of writhing reactions) ([1]; 100 mg/kg peroral): 6.2 ± 1.7
- % effect (Decrease in the writhing reactions) ([1]; 100 mg/kg peroral, P <0.001): 69.7 ± 8.4%
- ΣR x ± sx (frequency of writhing reactions) ([1]; 215 mg/kg peroral): 0.8 ± 0.8
- % effect (Decrease in the writhing reactions) ([1]; 215 mg/kg peroral, P <0.001): 96.1 ± 3.9%
- ED50 ([1]; Mus musculus, po, peroral application, mice, from regression line): 21.6 mg/kg
- pharmacological effect, particularly analgesic properties [2]: singled out for their pharmacological effect, particularly their analgesic properties
- behavior of treated animals [3]: consistent with a central nervous system depressant action
- effective dose relative to toxic doses [4]: much below the range of toxic doses

SMILES: O=[N+]([O-])c1cccc(C2=NN3CCN=C3c3ccccc3S2)c1 [Example 4, Imidazolino-[1,2-d]-benzo-[f]-2-(3-nitrophenyl)-1,3,4-thiadiazepine]
- pharmacological effect, particularly analgesic properties [2]: singled out for their pharmacological effect, particularly their analgesic properties
